These results are taken from ChEMBL document CHEMBL1143651, “Design and synthesis of 6-anilinoindazoles as selective inhibitors of c-Jun N-terminal kinase-3” (Bioorg Med Chem Lett, 2005).

pIC50: −log10 of the molar value.

The target of test [1] is Mitogen-activated protein kinase 8 (Homo sapiens, UniProt P45983). As to the kind of experiment: Inhibitory concentration against c-Jun N-terminal kinase 1.
In test [2] the target is Mitogen-activated protein kinase 10 (Homo sapiens, UniProt P53779). Briefly: Inhibitory concentration against c-Jun N-terminal kinase 3.
Test [3] deals with Mitogen-activated protein kinase 14 (Homo sapiens, UniProt Q16539). Briefly: Inhibitory concentration against Mitogen-activated protein kinase p38 alpha.
Chain of Mitogen-activated protein kinase 14 (Q16539 whole entry): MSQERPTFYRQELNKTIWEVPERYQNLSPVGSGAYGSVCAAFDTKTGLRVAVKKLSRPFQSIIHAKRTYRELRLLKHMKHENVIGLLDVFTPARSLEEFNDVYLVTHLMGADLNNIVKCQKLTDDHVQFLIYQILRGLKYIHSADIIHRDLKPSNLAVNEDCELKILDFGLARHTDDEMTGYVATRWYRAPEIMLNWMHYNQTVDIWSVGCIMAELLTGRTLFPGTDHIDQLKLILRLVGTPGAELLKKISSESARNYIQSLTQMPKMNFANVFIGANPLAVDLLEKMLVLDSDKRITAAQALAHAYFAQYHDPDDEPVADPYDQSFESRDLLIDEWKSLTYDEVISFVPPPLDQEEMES

Chain of Mitogen-activated protein kinase 8 (P45983 whole entry): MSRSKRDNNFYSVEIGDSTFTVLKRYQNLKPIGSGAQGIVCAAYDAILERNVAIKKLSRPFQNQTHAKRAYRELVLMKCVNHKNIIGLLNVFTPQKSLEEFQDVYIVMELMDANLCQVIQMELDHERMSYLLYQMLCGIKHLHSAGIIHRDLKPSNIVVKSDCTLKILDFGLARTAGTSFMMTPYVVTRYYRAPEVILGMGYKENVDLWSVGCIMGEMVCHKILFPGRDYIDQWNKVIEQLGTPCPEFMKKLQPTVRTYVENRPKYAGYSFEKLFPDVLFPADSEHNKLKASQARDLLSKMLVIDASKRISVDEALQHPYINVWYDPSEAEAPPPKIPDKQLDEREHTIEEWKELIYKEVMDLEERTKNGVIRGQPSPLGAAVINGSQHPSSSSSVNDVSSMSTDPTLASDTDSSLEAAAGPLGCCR
Chain of Mitogen-activated protein kinase 10 (P53779 whole entry): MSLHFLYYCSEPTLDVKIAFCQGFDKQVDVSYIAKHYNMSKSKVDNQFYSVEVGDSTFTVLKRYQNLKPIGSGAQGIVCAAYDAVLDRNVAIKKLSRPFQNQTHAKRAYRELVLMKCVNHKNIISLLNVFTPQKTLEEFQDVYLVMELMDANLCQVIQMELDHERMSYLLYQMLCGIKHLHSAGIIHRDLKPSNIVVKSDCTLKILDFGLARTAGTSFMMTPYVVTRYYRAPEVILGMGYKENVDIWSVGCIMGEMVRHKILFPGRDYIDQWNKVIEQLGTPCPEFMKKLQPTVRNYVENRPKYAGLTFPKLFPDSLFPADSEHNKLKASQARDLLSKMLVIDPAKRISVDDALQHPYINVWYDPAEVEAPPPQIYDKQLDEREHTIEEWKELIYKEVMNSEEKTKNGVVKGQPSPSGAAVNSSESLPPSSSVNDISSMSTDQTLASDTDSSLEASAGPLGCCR

Regarding `O=C(NC1CCNCC1)c1cccc(-c2n[nH]c3cc(Nc4ccccc4Cl)ccc23)c1`, the pIC50 (commonly the negative decadic logarithm of the IC50, by convention in mol/L) in test [1] is 7.15; in test [2], 8.85; in test [3], 8.36.
Consider `O=C(O)c1cccc(-c2n[nH]c3cc(Nc4ccccc4Cl)ccc23)c1`, for which the pIC50 was 7.21 in test [1], 8.28 in test [2] and 7.62 in test [3].
As to `O=C(O)c1ccc(-c2n[nH]c3cc(Nc4ccccc4Cl)ccc23)cc1`, the pIC50 in test [1] is 6.61; in test [2] it was 7.49; in test [3] it was 7.89.
On the same counts, the results for `O=C(NCCCN1CCOCC1)c1cccc(-c2n[nH]c3cc(Nc4ccccc4Cl)ccc23)c1` are 6.64, 8.47 and 8.43.
On the same counts, the results for `CN(C)CCNC(=O)c1cccc(-c2n[nH]c3cc(Nc4ccccc4Cl)ccc23)c1` are 6.16, 7.68 and 7.80.
The corresponding values for `NC(=O)c1cccc(-c2n[nH]c3cc(Nc4ccccc4Cl)ccc23)c1` are 7.09, 8.48 and 8.49.
With `COc1ccccc1Nc1ccc2c(-c3ccccc3)n[nH]c2c1`, the pIC50 was 5.80 in test [1], 6.69 in test [2] and 7.34 in test [3].
Take `c1ccc(Nc2ccc3c(-c4ccccc4)n[nH]c3c2)cc1`: the pIC50 in test [1] was less than 5.00; in test [2], 7.32; in test [3], 7.52.
The corresponding values for `CN(C)CCNC(=O)c1ccc(-c2n[nH]c3cc(Nc4ccccc4Cl)ccc23)cc1` are 7.35, 8.72 and 8.06.
Regarding `Clc1ccccc1Nc1ccc2c(-c3ccccc3)n[nH]c2c1`, the pIC50 in test [1] was 5.27; in test [2] it was 7.52; in test [3], 7.74.
